# In patent US9969749B2, “Inhibitors of IRAK4 activity” (MERCK SHARP & DOHME CORP., priority 2014, dated 2018):
# Target: IRAK4 (Homo sapiens (Human), UniProt Q9NWZ3)
# Experiment: IRAK4 Kinase Assay (IMAP fluorescence polarization)
# Format: biochemical
# Details: 0.5 nM GST tagged IRAK4, 100 μM ATP, 100 nM fluorescent peptide substrate RP7030, 30 minutes at 25° C.
# Protocol: The kinase activity of IRAK4 is determined by its ability to catalyze the phosphorylation of a fluorescent polypeptide substrate. The extent of phosphorylation is measured using the IMAP technology (Molecular Devices) where the phosphorylated fluorescent substrate binds to the large M(III)-based nanoparticles which reduces the rotational speed of the substrate and thus increases its fluorescent polarization (FP).
# 20 μL reaction mixture contains 10 mM TriHCl, pH 7.2, 0.5 nM GST tagged IRAK4 (SignalChem), 100 nM fluorescent peptide substrate (RP7030, Molecular Devices), 100 μM ATP, 1 mM DDT, 1 mM MgCl2, and 0.01% Tween 20. The reaction is initiated by the addition of ATP. After incubation for 30 minutes at 25° C., 60 μL of Progressive IMAP Reagent (Molecular Devices) is added to stop the reaction. Change in RP7030's FP is determined by a FP reader (Analyst HT, LJL BioSystems).
# Sequence of IRAK4 (Q9NWZ3 whole entry): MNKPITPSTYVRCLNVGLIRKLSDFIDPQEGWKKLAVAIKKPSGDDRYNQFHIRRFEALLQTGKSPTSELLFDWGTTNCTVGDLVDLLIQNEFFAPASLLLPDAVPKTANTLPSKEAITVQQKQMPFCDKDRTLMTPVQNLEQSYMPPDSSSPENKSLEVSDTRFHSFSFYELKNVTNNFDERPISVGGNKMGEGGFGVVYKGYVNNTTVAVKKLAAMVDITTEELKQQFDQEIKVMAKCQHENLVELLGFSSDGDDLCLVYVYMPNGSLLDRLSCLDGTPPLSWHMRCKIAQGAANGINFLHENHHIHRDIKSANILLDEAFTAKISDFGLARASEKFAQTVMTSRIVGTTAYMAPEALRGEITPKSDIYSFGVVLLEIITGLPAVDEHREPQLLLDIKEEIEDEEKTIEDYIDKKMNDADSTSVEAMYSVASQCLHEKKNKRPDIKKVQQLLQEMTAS
row,IC50,Structure (SMILES)
1,6 nM,"Oc1cccc(-c2ccc3ncnc(N[C@H]4CC[C@H](N5CCOCC5)CC4)c3c2)c1 [Example 1-72, 3-{4-[(trans-4-morpholin-4-ylcyclohexyl)amino]quinazolin-6-yl}phenol]"
2,1 nM,"Nc1cncc(-c2ccc3ncnc(N[C@H]4CC[C@H](N5CCOCC5)CC4)c3c2)c1 [Example 1-73, 6-(5-aminopyridin-3-yl)-N-(trans-4-morpholin-4-ylcyclohexyl)quinazolin-4-amine]"
3,3 nM,"Nc1cc(-c2ccc3ncnc(N[C@H]4CC[C@H](N5CCOCC5)CC4)c3c2)ccn1 [Example 1-74, 6-(2-aminopyridin-4-yl)-N-(trans-4-morpholin-4-ylcyclohexyl)quinazolin-4-amine]"
4,39 nM,"Cn1cc(-c2ccc3ncnc(N[C@H]4CC[C@H](N5CCOCC5)CC4)c3c2)cn1 [Example 1-75, 6-(1-methyl-1H-pyrazol-4-yl)-N-(trans-4-morpholin-4-ylcyclohexyl)quinazolin-4-amine]"
5,223 nM,"Cc1c(-c2cncnc2)ccc2ncnc(N[C@H]3CC[C@H](N4CCOCC4)CC3)c12 [Example 1-76, 5-methyl-N-(trans-4-morpholin-4-ylcyclohexyl)-6-pyrimidin-5-ylquinazolin-4-amine]"
6,1310 nM,"Cc1c(-c2cnn(C)c2)ccc2ncnc(N[C@H]3CC[C@H](N4CCOCC4)CC3)c12 [Example 1-77, 5-methyl-6-(1-methyl-1H-pyrazol-4-yl)-N-(trans-4-morpholin-4-ylcyclohexyl)quinazolin-4-amine]"
7,433 nM,"Cc1c(-c2ccncc2)ccc2ncnc(N[C@H]3CC[C@H](N4CCOCC4)CC3)c12 [Example 1-78, 5-methyl-N-(trans-4-morpholin-4-ylcyclohexyl)-6-pyridin-4-ylquinazolin-4-amine]"
8,38 nM,"Cc1c(-c2cncc(O)c2)ccc2ncnc(N[C@H]3CC[C@H](N4CCOCC4)CC3)c12 [Example 1-79, 5-{5-methyl-4-[(trans-4-morpholin-4-ylcyclohexyl)amino]quinazolin-6-yl}pyridin-3-ol]"
9,2 nM,"Fc1cc2ncnc(N[C@H]3CC[C@H](N4CCOCC4)CC3)c2cc1-c1cn[nH]c1 [Example 1-80, 7-fluoro-N-(trans-4-morpholin-4-ylcyclohexyl)-6-(1H-pyrazol-4-yl)quinazolin-4-amine]"
10,2 nM,"CNc1cncc(-c2ccc3ncnc(N[C@H]4CC[C@H](N5CCOCC5)CC4)c3c2)c1 [Example 1-81, 6-[5-(methylamino)pyridin-3-yl]-N-(trans-4-morpholin-4-ylcyclohexyl)quinazolin-4-amine]"
11,2 nM,"c1nc(N[C@H]2CC[C@H](N3CCOCC3)CC2)c2cc(-c3cn[nH]c3)ccc2n1 [Example 1-82, N-(trans-4-morpholin-4-ylcyclohexyl)-6-(1H-pyrazol-4-yl)quinazolin-4-amine]"
12,9 nM,"Nc1cccc(-c2ccc3ncnc(N[C@H]4CC[C@H](N5CCOCC5)CC4)c3c2)c1 [Example 1-83, 6-(3-aminophenyl)-N-(trans-4-morpholin-4-ylcyclohexyl)quinazolin-4-amine]"
13,1 nM,"Oc1cncc(-c2cc3c(N[C@H]4CC[C@H](N5CCOCC5)CC4)ncnc3cc2F)c1 [Example 1-84, 5-{7-fluoro-4-[(trans-4-morpholin-4-ylcyclohexyl)amino]quinazolin-6-yl}pyridin-3-ol]"
14,10 nM,"Nc1cncc(-c2cc3c(N[C@H]4CC[C@H](N5CCOCC5)CC4)ncnc3cc2F)c1 [Example 1-85, 6-(5-aminopyridin-3-yl)-7-fluoro-N-(trans-4-morpholin-4-ylcyclohexyl)quinazolin-4-amine]"
15,23 nM,"CNc1cncc(-c2cc3c(N[C@H]4CC[C@H](N5CCOCC5)CC4)ncnc3cc2F)c1 [Example 1-86, 7-fluoro-6-[5-(methylamino)pyridin-3-yl]-N-(trans-4-morpholin-4-ylcyclohexyl)quinazolin-4-amine]"
16,15 nM,"Fc1cc2ncnc(N[C@H]3CC[C@H](N4CCOCC4)CC3)c2cc1-c1cncnc1 [Example 1-87, 7-fluoro-N-(trans-4-morpholin-4-ylcyclohexyl)-6-pyrimidin-5-ylquinazolin-4-amine]"
